Data published in PMC10464297, “Reevaluation of bromodomain ligands targeting BAZ2A” (Protein Science : A Publication of the Protein Society, 2023).

Experiments:
BAZ2B bromodomain = molecular target: T1, BAZ2B bromodomain (Homo sapiens, UniProt Q9UIF8); assay: AlphaScreen binding competition, BAZ2B bromodomain; conditions: for % residual binding BAZ2B (100 μM): compound at 100 μM
T1 construct: BAZ2A and BAZ2B bromodomains were produced; made in house
T1 sequence (Q9UIF8 2060-2164 limits assumed): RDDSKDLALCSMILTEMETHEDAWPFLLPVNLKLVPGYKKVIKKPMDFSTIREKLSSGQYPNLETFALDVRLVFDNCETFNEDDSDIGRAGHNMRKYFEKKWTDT
Excerpt: (§1) BAZ2A and BAZ2B bromodomains were produced and their activity evaluated by AlphaScreen as previously reported (Dalle Vedove et al., [2018]; Spiliotopoulos et al., [2017]). BAZ2A bromodomain was crystallized as detailed in an earlier work (Spiliotopoulos et al., [2017]). Diffraction data were collected at the Elettra Synchrotron Light Source (Trieste, Italy), XRD1 and XRD2 beamlines, and the European Synchrotron Radiation Facility (ESRF, Grenoble, France), ID30A‐1/MASSIF‐1 beamline. Data were processed and structures were solved as described elsewhere (Dalle Vedove et al., [2018]). Chemical synthesis of compounds UP39 and UZH23 has already been reported (Unzue et al., [2016]; Zhu et al., [2018]). A detailed description of cell culture methods and ITC protocol is provided in the Supporting Information.
(§2) Figure S3. AlphaScreen competition binding assay for compounds UP39 and UZH23. The specific binding to the acetylated peptide relative to the control DMSO (y-axis) is plotted against the corresponding compound concentration in µM in log10 scale (x-axis).
(§3) (1 picture or pasted object on this page, not shown here)

[1] = tested on: first bromodomain of BRD4; set-up: method as in Hay et al., [2014]; Picaud et al., [2015]; conditions: ref Hay et al., [2014]; Picaud et al., [2015]; cited from earlier work
BAZ2A bromodomain [2] = molecular target: T2, BAZ2A bromodomain (Homo sapiens, UniProt Q9UIF9); assay: Screening by co‐crystallization with BAZ2A bromodomain; format: binding
T2 construct: BAZ2A and BAZ2B bromodomains were produced; made in house
T2 sequence (Q9UIF9 1793-1897 limits assumed): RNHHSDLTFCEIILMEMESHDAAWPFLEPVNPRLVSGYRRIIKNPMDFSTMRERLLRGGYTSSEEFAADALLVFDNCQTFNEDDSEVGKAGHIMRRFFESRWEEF
Excerpt: as §1

BAZ2A bromodomain [3] = molecular target: T2, BAZ2A bromodomain; assay: AlphaScreen binding competition, BAZ2A bromodomain; conditions: for % residual binding BAZ2A (100 μM): compound at 100 μM
Excerpt: as §1, §2, §3

BAZ2A bromodomain [4] = molecular target: T2, BAZ2A bromodomain; assay: Isothermal titration calorimetry (ITC) on BAZ2A; format: binding
Excerpt: It is worth noticing however that these values may be slightly overestimated. The presence of 0.25% DMSO in the ITC experiments leads to less favorable K D values as DMSO competes for binding to the conserved Asn (Lolli & Battistutta, [2013]; Navratilova et al., [2016]). […] Indeed, the change in sign of the entropic term observed for TP‐238 binding to BAZ2A (compared to BPTF and CECR2) closely resembles the effect reported for crotonyllysine binding to the TAF1 bromodomain (compared to Kac), also displacing an additional water molecule from the binding pocket (Flynn et al., [2015]). […]
Isothermal Titration Calorimetry
ITC experiments were performed using an MicroCal PEAQ-IT C microcalorimeter (Malvern Panalytical, UK) at 25°C with a stirring speed of 750 rpm in 20mM Tris pH 7. 8, 0. 2 M NaCl, 0. 2 mM TCEP and 0. 25% DMSO. For each experiment, one 0. 4 µl injection followed by eighteen 2 µl injections have been performed, with 150 seconds separating each injectio n. The inhibitors were tested at 70 µM in the cell with His -Baz2A in the syringe at 1 mM. A blank run with only the buffer was carried out (Suppl. Fig. S6). Data analysis was done with PE A Q-ITC Analysis software , fitting the curve with the ‘one site’ model.

BPTF = conditions: ref Ycas et al., [2020]; read-out: K D BPTF; cited from earlier work
BRD9 = conditions: ref Ycas et al., [2020]; read-out: K D BRD9; cited from earlier work
CECR2 bromodomain = conditions: ref Ycas et al., [2020]; read-out: K D CECR2; cited from earlier work

| Structure (SMILES) | % residual binding BAZ2B (100 μM) (BAZ2B bromodomain) [%] | off‐target activity on the first bromodomain of BRD4 [1] | located in BAZ2A Kac pocket by co‐crystallization (BAZ2A bromodomain [2]) | % residual binding BAZ2A (100 μM) (BAZ2A bromodomain [3]) [%] | Kd (BAZ2A bromodomain [4]; 25°C, 0.25% DMSO, read-out: K D BAZ2A) [µM] | TΔS (BAZ2A bromodomain [4]; BAZ2A) [kcal/mol] | ΔG (BAZ2A bromodomain [4]; BAZ2A) [kcal/mol] | ΔH (BAZ2A bromodomain [4]; BAZ2A) [kcal/mol] | N (sites) (BAZ2A bromodomain [4]; BAZ2A, one site model) | Kd (BPTF) [µM] | Kd (BRD9) [µM] | Kd (CECR2 bromodomain) [µM] | IC50 (BAZ2B bromodomain; AlphaScreen) [µM] | IC50 (BAZ2A bromodomain [3]; AlphaScreen) [µM] |
| --- | --- | --- | --- | --- | --- | --- | --- | --- | --- | --- | --- | --- | --- | --- |
| COc1ccc(CCc2nc3cc(-c4c(C)noc4C)ccc3n2C[C@H](C)N2CCOCC2)cc1Cl [SGC‐CBP30] | 92 ± 6 | weak off‐target activity | inability to act as BAZ2A inhibitors | 95 ± 4 |  |  |  |  |  |  |  |  |  |  |
| CN(C)CCCOc1ccc(-c2cc(NCCCn3cccn3)nc(S(C)(=O)=O)n2)cc1 [TP‐238] | 77 ± 2 |  | located in the BAZ2A Kac pocket | 81 ± 3 | 108 ± 6 | 2.68 | -5.41 | -2.73 ± 0.07 | 1 | 0.12 | 1.1 | 0.01 |  |  |
| CC(=O)n1cc(-c2c(C)nn3c2OCC3)c2ccccc21 [UZH23] | 62 ± 7 |  |  | 52 ± 9 |  |  |  |  |  |  |  |  | > 100 | 86 ± 9 |
